Assay results as given in patent US4517181A, “Mammalian PGRF” (The Salk Institute for Biological Studies, priority 1982, dated 1985).

Tested on: cells of rat pituitary glands
Experiment: in vitro GH release, rat pituitary cell monolayer culture bioassay (ir GH by radioimmunoassay)
Format: cell-based
Conditions: for GH secretion in vitro % of controls: Table III
Description: To determine the effectiveness of the peptides to promote the release of growth hormone, in vitro assays are carried out using synthetic PGRF (1-40) of Example II in side-by-side comparison with equimolar concentrations of the extracted and purified native PGRF (1-40) and of a GRF Reference Standard having a known effectiveness to promote the release of growth hormone from pituitary cells. The GRF Reference standard is described and defined in Brazeau, et al., Endocrinology, Vol. 110, A538(1982) and is an amount of a preparation of rat hypothalamic origin that produces a half-maximal response in terms of GH release in a pituitary cell monolayer bioassay. Cultures are used which include cells of rat pituitary glands removed some four to five days previously. Both cultures of a defined standard medium and cultures which are considered optimal for the secretion of growth hormone are used for the comparative testing, in the general manner described in Brazeau, et al. Regulatory Peptides, 1, 255, 1981. Incubation with the substance to be tested is carried out for 3 to 4 hours, and aliquots of the culture medium are removed and processed to measure their contents in inmunoreactive GH(ir GH) by a well-characterized radioimmunoassay.
The in vitro assays described in Example VII are repeated using Native PGRF(1-40) and Native PGRF(1-44) and the results are set forth in following Table III: […]

SMILES: CC[C@H](C)[C@H](NC(=O)[C@H](C)NC(=O)[C@H](CC(=O)O)NC(=O)[C@H](C)NC(=O)[C@@H](N)Cc1ccc(O)cc1)C(=O)N[C@@H](Cc1ccccc1)C(=O)N[C@H](C(=O)N[C@@H](CC(N)=O)C(=O)N[C@@H](CO)C(=O)N[C@@H](Cc1ccc(O)cc1)C(=O)N[C@@H](CCCNC(=N)N)C(=O)N[C@@H](CCCCN)C(=O)N[C@H](C(=O)N[C@@H](CC(C)C)C(=O)NCC(=O)N[C@@H](CCC(N)=O)C(=O)N[C@@H](CC(C)C)C(=O)N[C@@H](CO)C(=O)N[C@@H](C)C(=O)N[C@@H](CCCNC(=N)N)C(=O)N[C@@H](CCCCN)C(=O)N[C@@H](CC(C)C)C(=O)N[C@@H](CC(C)C)C(=O)N[C@@H](CCC(N)=O)C(=O)N[C@@H](CC(=O)O)C(=O)N[C@H](C(=O)N[C@@H](CCSC)C(=O)N[C@@H](CO)C(=O)N[C@@H](CCCNC(=N)N)C(=O)N[C@@H](CCC(N)=O)C(=O)N[C@@H](CCC(N)=O)C(=O)NCC(=O)N[C@@H](CCC(=O)O)C(=O)N[C@@H](CO)C(=O)N[C@@H](CC(N)=O)C(=O)N[C@@H](CCC(N)=O)C(=O)N[C@@H](CCC(=O)O)C(=O)N[C@@H](CCCNC(=N)N)C(=O)NCC(=O)N[C@@H](C)C(=O)N[C@@H](CCCNC(=N)N)C(=O)N[C@@H](C)C(=O)N[C@@H](CCCNC(=N)N)C(=O)N[C@@H](CC(C)C)C(N)=O)[C@@H](C)CC)C(C)C)[C@@H](C)O [Native PGRF (1-44)]
- GH secretion in vitro % of controls (6.3 femtomoles): 289 ± 10 % of controls
- GH secretion in vitro % of controls (12.5 femtomoles): 391 ± 8 % of controls
- GH secretion in vitro % of controls (25.0 femtomoles): 479 ± 8 % of controls
- GH secretion in vitro % of controls (50.0 femtomoles): 561 ± 14 % of controls
- GH secretion in vitro % of controls (100.0 femtomoles): 599 ± 7 % of controls
- GH secretion in vitro % of controls (200.0 femtomoles): 606 ± 6 % of controls
- GH secretion in vitro % of controls (400.0 femtomoles): 610 ± 5 % of controls
- Potency in terms of PGRF(1-40) (confidence limits of 1.616 and 3.131, computer calculated (BIOPROG)): 2.2261 ×PGRF(1-40)
- Potency in terms of GRF Reference Standard (per 1 femtomole, confidence limits of 0.122 and 0.239, computer calculated (BIOPROG)): 0.1696 unit

SMILES: CC[C@H](C)[C@H](NC(=O)[C@H](C)NC(=O)[C@H](CC(=O)O)NC(=O)[C@H](C)NC(=O)[C@@H](N)Cc1ccc(O)cc1)C(=O)N[C@@H](Cc1ccccc1)C(=O)N[C@H](C(=O)N[C@@H](CC(N)=O)C(=O)N[C@@H](CO)C(=O)N[C@@H](Cc1ccc(O)cc1)C(=O)N[C@@H](CCCNC(=N)N)C(=O)N[C@@H](CCCCN)C(=O)N[C@H](C(=O)N[C@@H](CC(C)C)C(=O)NCC(=O)N[C@@H](CCC(N)=O)C(=O)N[C@@H](CC(C)C)C(=O)N[C@@H](CO)C(=O)N[C@@H](C)C(=O)N[C@@H](CCCNC(=N)N)C(=O)N[C@@H](CCCCN)C(=O)N[C@@H](CC(C)C)C(=O)N[C@@H](CC(C)C)C(=O)N[C@@H](CCC(N)=O)C(=O)N[C@@H](CC(=O)O)C(=O)N[C@H](C(=O)N[C@@H](CCSC)C(=O)N[C@@H](CO)C(=O)N[C@@H](CCCNC(=N)N)C(=O)N[C@@H](CCC(N)=O)C(=O)N[C@@H](CCC(N)=O)C(=O)NCC(=O)N[C@@H](CCC(=O)O)C(=O)N[C@@H](CO)C(=O)N[C@@H](CC(N)=O)C(=O)N[C@@H](CCC(N)=O)C(=O)N[C@@H](CCC(=O)O)C(=O)O)[C@@H](C)CC)C(C)C)[C@@H](C)O [PGRF(1-37) free acid]
- GH-releasing activity (peptides isolated from human islet cell tumor): exhibit GH-releasing activity

SMILES: CC[C@H](C)[C@H](NC(=O)[C@H](C)NC(=O)[C@H](CC(=O)O)NC(=O)[C@H](C)NC(=O)[C@@H](N)Cc1ccc(O)cc1)C(=O)N[C@@H](Cc1ccccc1)C(=O)N[C@H](C(=O)N[C@@H](CC(N)=O)C(=O)N[C@@H](CO)C(=O)N[C@@H](Cc1ccc(O)cc1)C(=O)N[C@@H](CCCNC(=N)N)C(=O)N[C@@H](CCCCN)C(=O)N[C@H](C(=O)N[C@@H](CC(C)C)C(=O)NCC(=O)N[C@@H](CCC(N)=O)C(=O)N[C@@H](CC(C)C)C(=O)N[C@@H](CO)C(=O)N[C@@H](C)C(=O)N[C@@H](CCCNC(=N)N)C(=O)N[C@@H](CCCCN)C(=O)N[C@@H](CC(C)C)C(=O)N[C@@H](CC(C)C)C(=O)N[C@@H](CCC(N)=O)C(=O)N[C@@H](CC(=O)O)C(=O)N[C@H](C(=O)N[C@@H](CCSC)C(=O)N[C@@H](CO)C(=O)N[C@@H](CCCNC(=N)N)C(=O)N[C@@H](CCC(N)=O)C(=O)N[C@@H](CCC(N)=O)C(=O)NCC(=O)N[C@@H](CCC(=O)O)C(=O)N[C@@H](CO)C(=O)N[C@@H](CC(N)=O)C(=O)N[C@@H](CCC(N)=O)C(=O)N[C@@H](CCC(=O)O)C(=O)N[C@@H](CCCNC(=N)N)C(=O)NCC(=O)N[C@@H](C)C(=O)N[C@@H](CCCNC(=N)N)C(=O)N[C@@H](C)C(=O)N[C@@H](CCCNC(=N)N)C(=O)N[C@@H](CC(C)C)C(=O)O)[C@@H](C)CC)C(C)C)[C@@H](C)O [synthetic PGRF(1-44)-free acid, PGRF(1-44) free acid]
- potency compared with native PGRF(1-44) (further testing): somewhat less potency than native PGRF(1-44)
